In patent US20260070922A1, “PYRAZOLE AND IMIDAZOLE DERIVATIVES AS DUAL OREXIN AND KAPPA-OPIOID RECEPTORS MODULATORS COMPOSITION, METHODS FOR TREATING NEUROLOGICAL AND PSYCHIATRIC DISORDERS” (HAGER BIOSCIENCES, LLC, priority 2022, published 2026):

Legend:
[1] = molecular target: T1, human k-opioid receptor (kOR) (Homo sapiens, UniProt P41145); test: Human k-opioid (KOP) receptor (agonist radioligand [3H]U-69593) binding assay, transfected RBL cell membranes; conditions: for inhibition at 1 µM: read-out: KOR % Inh. @ 1 uM
T1 construct: expressed in transfected cells; host or cells: RBL cells (membrane homogenates)
T1 sequence (P41145 whole entry): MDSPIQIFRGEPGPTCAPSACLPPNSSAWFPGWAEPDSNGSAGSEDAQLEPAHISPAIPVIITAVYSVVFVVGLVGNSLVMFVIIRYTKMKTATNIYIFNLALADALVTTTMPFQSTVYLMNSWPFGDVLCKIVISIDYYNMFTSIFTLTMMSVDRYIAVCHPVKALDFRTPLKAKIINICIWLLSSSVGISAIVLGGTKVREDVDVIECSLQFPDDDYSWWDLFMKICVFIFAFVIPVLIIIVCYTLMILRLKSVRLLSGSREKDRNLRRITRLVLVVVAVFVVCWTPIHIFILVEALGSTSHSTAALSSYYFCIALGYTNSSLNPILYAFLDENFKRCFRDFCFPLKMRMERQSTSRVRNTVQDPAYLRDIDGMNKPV
Procedure: Human k-Opioid (KOP) Receptor (Agonist Radioligand) Binding Assay
Purpose: Evaluation of the affinity of compounds for the human k-opioid receptor in transfected RBL cells determined in a radioligand binding assay.
Experimental protocol: Cell membrane homogenates (about 80 μg protein) are incubated for 60 min at 22° C. with 0.5 nM [3H]U-69593 in the absence or presence of the test compound in a buffer containing 50 mM Tris-HCl (pH 7.4), 10 mM MgCl2 and 1 mM EDTA. Nonspecific binding is determined in the presence of 10 μM naloxone. Following incubation, the samples are filtered rapidly under vacuum through glass fiber filters ([…], Packard) presoaked with 0.3% PEI and rinsed several times with ice-cold 50 mM Tris-HCl using a 96-sample cell harvester (Unifilter, Packard). The filters are dried then counted for radioactivity in a scintillation counter (Topcount, Packard) using a scintillation cocktail (Microscint 0, Packard). The results are expressed as a percent inhibition of the control radioligand specific binding. The standard reference compound is U-50488, which is tested in each experiment at several concentrations to obtain a competition curve from which its IC50 is calculated.

[2] = molecular target: T2, human orexin-2 receptor (OX2R) (Homo sapiens, UniProt O43614); test: In vitro orexin antagonism assay: intracellular calcium measurement (FLIPR), orexin-A 3 nM as agonist; assay type: cell-based; conditions: for IC50: first value of IC50/Kb cell; for Kb: second value of IC50/Kb cell; for inhibition at 1 µM: read-out: OX2R, % Inh. @ 1 uM
T2 construct: expressed in transfected cells; host or cells: CHO cells (G418 selection)
T2 sequence (O43614 1-444): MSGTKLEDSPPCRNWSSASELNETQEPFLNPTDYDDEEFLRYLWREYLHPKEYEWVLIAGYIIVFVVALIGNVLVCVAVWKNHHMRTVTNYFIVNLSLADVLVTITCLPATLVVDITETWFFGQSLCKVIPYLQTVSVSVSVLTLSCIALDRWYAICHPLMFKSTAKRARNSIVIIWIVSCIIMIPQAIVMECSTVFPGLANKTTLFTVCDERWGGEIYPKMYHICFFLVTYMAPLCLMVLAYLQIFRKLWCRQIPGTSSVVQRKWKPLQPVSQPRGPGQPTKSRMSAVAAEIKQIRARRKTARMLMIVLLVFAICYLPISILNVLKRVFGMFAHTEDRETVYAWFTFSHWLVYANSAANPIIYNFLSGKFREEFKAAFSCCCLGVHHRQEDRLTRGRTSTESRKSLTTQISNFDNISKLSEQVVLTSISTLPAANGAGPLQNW
Method in brief: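 Fluorescence peak on 3 nM orexin-A challenge, read by FLIPR and compared with vehicle, yields IC50 (geometric mean when repeated; may be normalized to an on-plate reference). Antagonists were added 120 min beforehand to fluo-4-loaded recombinant CHO cells expressing human OX1R or OX2R.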

[3] = molecular target: T3, Orexin type 1 (OX1R) receptor (Homo sapiens, UniProt O43613); test: as above; assay type: cell-based; conditions: for IC50: first value of IC50/Kb cell; for Kb: second value of IC50/Kb cell; for inhibition at 1 µM: read-out: OX1R, % Inh. @ 1 uM
T3 construct: expressed in transfected cells; host or cells: CHO cells (G418 selection)
T3 sequence (O43613 1-425): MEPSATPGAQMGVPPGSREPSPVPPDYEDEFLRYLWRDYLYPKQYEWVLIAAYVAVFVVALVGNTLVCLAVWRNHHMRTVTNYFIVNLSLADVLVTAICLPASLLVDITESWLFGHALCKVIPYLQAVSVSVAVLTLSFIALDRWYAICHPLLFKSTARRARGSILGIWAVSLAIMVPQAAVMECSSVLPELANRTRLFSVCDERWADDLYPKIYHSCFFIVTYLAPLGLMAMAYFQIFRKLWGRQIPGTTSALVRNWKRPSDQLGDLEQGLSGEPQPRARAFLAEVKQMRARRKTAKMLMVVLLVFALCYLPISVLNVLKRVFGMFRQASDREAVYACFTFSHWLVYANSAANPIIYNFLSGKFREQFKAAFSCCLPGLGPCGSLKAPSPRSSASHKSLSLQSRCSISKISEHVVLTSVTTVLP
Method in brief: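 CHO cells expressing the human orexin receptor were loaded with 3 μM fluo-4 AM plus 5 mM probenecid, then exposed to antagonist for 120 min before 3 nM orexin-A (final) was added on a FLIPR.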

SMILES	KOR % Inh. @ 1 uM [1] [%]	IC50 ([1]; first value of IC50/Ki cell) [nM]	Ki ([1]; second value of IC50/Ki cell) [nM]	OX2R, % Inh. @ 1 uM [2] [%]	IC50 [2] [nM]	Kb [2] [nM]	OX1R, % Inh. @ 1 uM [3] [%]	IC50 [3] [nM]	Kb [3] [nM]	inhibition at 1 µM [1] [%]	inhibition at 1 µM [2] [%]	inhibition at 1 µM [3] [%]
O=C(c1c(-c2ccccc2F)nn2c1COCC2)N1CCC[C@H]1Cn1ccc(-c2ccc(F)cc2)n1 [Example 66]	77	220	120	68	131	18	84	33	7	–	–	–
O=C(c1c(-c2ccccc2F)nn2ccccc12)N1CCC[C@H]1Cn1ccc(-c2ccccn2)n1 [Example 67]	–	–	–	–	20	4	–	13	3	27	74	100
O=C(c1c(-c2ccccc2F)nn2ccccc12)N1CCC[C@H]1Cn1cc(-c2ccccn2)cn1 [Example 68]	–	–	–	–	170	30	–	47	10	48	64	82
O=C(c1c(-c2ccccc2)nc2ccc(F)cn12)N1CCC[C@H]1Cn1ccc(-c2ccccn2)n1 [Example 73]	–	–	–	–	–	–	–	9	2	37	48	82
O=C(c1c(-c2ccccc2)nc2cc(C(F)(F)F)ccn12)N1CCC[C@H]1Cn1ccc(-c2ccccn2)n1 [Example 78]	–	–	–	–	270	48	–	160	34	52	55	78
O=C(c1c(-c2ccccc2F)nn2ccccc12)N1CCC[C@H]1Cn1cc(-c2ccc(F)cn2)cn1 [Example 82]	–	–	–	–	46	10	–	220	10	33	74	85
O=C(c1c(-c2ccccc2)nn2c1COCC2)N1[C@@H]2CC[C@@H](C2)[C@H]1COc1ccc(C(F)(F)F)cn1 [Example 87]	–	–	–	–	–	–	–	230	49	3	23	78
O=C(c1c(-c2ccccc2)nn2ccccc12)N1[C@@H]2CC[C@@H](C2)[C@H]1COc1ccc(C(F)(F)F)cn1 [Example 88]	–	–	–	–	360	63	–	37	8	22	66	97
O=C(c1c(-c2ccccc2)nc2ccccn12)N1[C@@H]2CC[C@@H](C2)[C@H]1COc1ccc(C(F)(F)F)cn1 [Example 89]	–	–	–	–	–	–	–	80	2	11	46	98
O=C(c1c(-c2ccccc2F)nn2ccccc12)N1CCC[C@H]1Cn1ccc(-c2ccc(F)cn2)n1 [Example 90]	33	–	–	84	15	3	99	6	1	–	–	–
O=C(c1nn2ccccc2c1-c1ccccc1)N1CCC[C@H]1Cn1ccc(-c2ccc(F)cn2)n1 [Example 111]	–	–	–	–	43	8	–	14	3	21	79	100
O=C(c1nn2ccccc2c1-c1ccccc1)N1CC[C@H]1Cn1ccc(-c2ccc(F)cn2)n1 [Example 115]	–	–	–	–	–	–	–	650	140	51	38	60
